In patent US20210330611A1, “THERAPY FOR NEUROLOGICAL DISEASES/DISORDERS” (priority 2020, published 2021):
Where a name gives a salt, the structure may show the parent alone. Read-outs that look alike come from different tables or passages of the source.

Tests used:
[1] = test system: primary rat microglia; experiment: Cell toxicity (dead cells, size <150 μm2) in LPS assay; details: for IC50: read-out: Cell Toxicity IC50 (uM) [LPS assay]
[2] = test system: fibrin- and LPS-induced microglia activation; experiment: cells; format: cell-based, rat
[3] = test system: fibrin-induced microglia activation; experiment: Image-based assay of fibrin-induced microglia activation (HTS and dose response); format: cell-based, rat; details: for inhibition at 10 µM: Rattus norvegicus, Microglia, read-out: Fibrin % inhibition
[4] = test system: primary rat microglia; experiment: Cell toxicity (dead cells, size <150 μm2) in coated fibrin (cFib) assay; details: for IC50: read-out: Cell Toxicity IC50 (uM) [cFib assay];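 for Fibrin % cell toxicity: share of dead cells sized under 150 µm2 at 10 µM in fibrin-stimulated microglia HTS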
[5] = test system: LPS-induced microglia activation; experiment: Image-based assay of LPS-induced microglia activation (HTS and dose response); format: cell-based, rat; details: for inhibition at 10 µM: Rattus norvegicus, Microglia, read-out: LPS % inhibition
[6] = primary microglia HTS, 10 μM, LPS assay, cell size <150 μm^2 as marker of toxicity
[7] = HTS of 1907 compounds, quadrant by fibrin and LPS inhibition
[8] = primary microglia HTS, 10 μM, fibrin-stimulated, cell size >800 μm^2 as marker of activation
[9] = primary microglia HTS, 10 μM, fibrin assay, cell size <150 μm^2 as marker of toxicity
[10] = primary microglia HTS, 10 μM, LPS-stimulated, cell size >800 μm^2 as marker of activation
[11] = primary microglia HTS, LPS stimulation, decreased size (<150 μm^2) as marker of toxicity
[12] = quadrant by fibrin and LPS inhibition in HTS of 1907 compounds
[13] = primary microglia HTS, fibrin stimulation, increased cell size (>800 μm^2) as marker of activation
[14] = primary microglia HTS, fibrin stimulation, decreased size (<150 μm^2) as marker of toxicity
[15] = primary microglia HTS, LPS stimulation, increased cell size (>800 μm^2) as marker of activation
[16] = primary HTS, 10 μM, LPS assay, dead cells size <150 μm2
[17] = primary HTS, 10 μM, fibrin-stimulated primary microglia
[18] = primary HTS, 10 μM, fibrin assay, dead cells size <150 μm2
[19] = primary HTS, 10 μM, LPS-stimulated primary microglia
[20] = 48 h, primary microglia HTS, LPS stimulation, increased cell size (>800 μm^2) as marker of activation
[21] = primary microglia HTS, LPS stimulation, toxicity = cell size <150 μm2
[22] = primary microglia HTS, fibrin stimulation, activation = cell size >800 μm2
[23] = primary microglia HTS, fibrin stimulation, toxicity = cell size <150 μm2
[24] = 48 h, primary microglia HTS, LPS stimulation, activation = cell size >800 μm2

NC[C@H]1O[C@H](O[C@H]2[C@H](O)[C@@H](O[C@H]3O[C@H](CO)[C@@H](O)[C@H](N)[C@H]3O)[C@H](N)C[C@@H]2N)[C@H](N)C[C@@H]1O [Tobramycin]
LPS % cell toxicity [1, 6]: 0% | Quadrant (FIG. 5b) [2, 7]: Q4 | inhibition at 10 µM [3, 8]: 1% | Fibrin % cell toxicity [4, 9]: 1% | inhibition at 10 µM [5, 10]: 24%

COc1ccnc(C[S+]([O-])c2nc3cc(OC(F)F)ccc3[n-]2)c1OC.[Na+] (centres unmarked) [Pantoprazole, Pantoprazole Sodium Salt]
LPS % cell toxicity [1, 11]: 0% | Quadrant (FIG. 5b) [2, 12]: Q4 | Fibrin % inhibition [3, 13]: −8% | Fibrin % cell toxicity [4, 14]: 0% | LPS % inhibition [5, 15]: −1%

NC(=O)OCC(O)COc1ccc(Cl)cc1 (centres unmarked) [Chlorphenesin Carbamate]
LPS % cell toxicity [1, 16]: 0% | Quadrant (FIG. 5b) ([2]; primary HTS, 10 μM): Q4 | inhibition at 10 µM [3, 17]: -41% | Fibrin % cell toxicity [4, 18]: 1% | inhibition at 10 µM [5, 19]: -4%

CCCC(=O)Nc1ncnc2c1ncn2[C@@H]1O[C@@H]2COP(=O)(O)O[C@H]2[C@H]1OC(=O)CCC [Bucladesine]
LPS % cell toxicity [1, 16]: 0% | Quadrant (FIG. 5b) ([2]; primary HTS, 10 μM): Q4 | inhibition at 10 µM [3, 17]: 10% | Fibrin % cell toxicity [4, 18]: 1% | inhibition at 10 µM [5, 19]: 24%

CO/N=C1\C[C@]2(C[C@@H]3C[C@@H](C/C=C(\C)C[C@@H](C)/C=C/C=C4\CO[C@@H]5[C@H](O)C(C)=C[C@@H](C(=O)O3)[C@]45O)O2)O[C@H](/C(C)=C/C(C)C)[C@H]1C [Moxidectin]
LPS % cell toxicity [1, 11]: 1% | Quadrant (FIG. 5b) [2, 12]: Q4 | inhibition at 10 µM [3, 13]: 1% | Fibrin % cell toxicity [4, 14]: 0% | inhibition at 10 µM [5, 20]: 14%

CCN(CC)CCOCCOC(=O)C(CC)(CC)c1ccccc1 [Oxeladin]
LPS % cell toxicity [1, 11]: 0% | Quadrant (FIG. 5b) [2, 12]: Q4 | inhibition at 10 µM [3, 13]: -27% | Fibrin % cell toxicity [4, 14]: 1% | inhibition at 10 µM [5, 20]: 6%

COc1cc(OC)c(C(=O)CCCN2CCCC2)c(OC)c1 [Buflomedil, Buflomedil Hydrochloride]
LPS % cell toxicity [1, 16]: 1% | Quadrant (FIG. 5b) ([2]; primary HTS, 10 μM): Q4 | Fibrin % inhibition [3, 17]: −37% | Fibrin % cell toxicity [4, 18]: 1% | LPS % inhibition [5, 19]: 13%

NS(=O)(=O)c1cc2c(cc1Cl)NCNS2(=O)=O [Hydrochlorothiazide]
LPS % cell toxicity [1, 21]: 0% | Quadrant (FIG. 5b) [2, 12]: Q4 | inhibition at 10 µM [3, 22]: -29% | Fibrin % cell toxicity [4, 23]: 0% | inhibition at 10 µM [5, 24]: 21%

O=C1[O][Pt]2([NH][C@@H]3CCCC[C@H]3[NH]2)[O]C1=O [Oxaliplatin, reference compound]
IC50 ([1]; LPS assay): > 20 µM | IC50 ([1]; Table 3): > 20 µM | Hit ([2]; HTS hit classification): HIT (Hits were defined as molecules that exhibited greater than 50% inhibition of either fibrin or LPS activation) | Quadrant (FIG. 5b) [2, 7]: Q3 | Quadrant (FIG. 5b) ([2]; Table 1, screen at 10 μM): Q3 | Cherry-picked Hit (Suppl. Table 7) ([2]; Table 3): HIT (Hits were defined as molecules that exhibited greater than 50% inhibition of either fibrin or LPS activation) | Quadrant (FIG. 5b) ([2]; Table 3, screen at 10 μM): Q3 | Cherry-picked Hit (Suppl. Table 7) ([2]; hit classification in microglia HTS): HIT (Hits were defined as molecules that exhibited greater than 50% inhibition of either fibrin or LPS activation) | Quadrant (FIG. 5b) [2, 12]: Q3 | Quadrant (FIG. 5b) ([2]; quadrant by fibrin and LPS inhibition, HTS at 10 μM): Q3 | IC50 ([3]; Table 1, dose response 0.001-20 μM, triplicates, primary rat microglia, 48 h, read-out: Fibrin IC50): 5 µM | IC50 ([3]; Table 3, read-out: Fibrin IC50 (uM) (Suppl. Table 7)): 5 µM | IC50 ([3]; dose response, fibrin-induced microglia activation, read-out: Fibrin IC50): 5 µM | IC50 ([3]; fibrin-induced microglia activation, dose response, read-out: Fibrin IC50 (uM) (Suppl. Table 7)): 5 µM | Fibrin % inhibition ([3]; primary microglia HTS, fibrin stimulation, compounds at 10 μM): 66% | Fibrin % inhibition [3, 13]: 96% | IC50 ([4]; Table 3): > 20 µM | IC50 ([4]; cFib assay): > 20 µM | IC50 ([5]; LPS-induced microglia activation, dose response, read-out: LPS IC50 (uM) (Suppl. Table 7)): 15 µM | IC50 ([5]; Table 1, dose response 0.001-20 μM, triplicates, primary rat microglia, 48 h, read-out: LPS IC50): 15 µM | IC50 ([5]; Table 3, read-out: LPS IC50 (uM) (Suppl. Table 7)): 15 µM | IC50 ([5]; dose response, LPS-induced microglia activation, read-out: LPS IC50): 15 µM | LPS % inhibition ([5]; primary microglia HTS, LPS stimulation, compounds at 10 μM): 21% | LPS % inhibition [5, 15]: 41%

CC(C)(C)C(=O)C(Oc1ccc(Cl)cc1)n1ccnc1 (centres unmarked) [Climbazole]
LPS % cell toxicity [1, 16]: 0% | Quadrant (FIG. 5b) ([2]; primary HTS, 10 μM): Q4 | inhibition at 10 µM [3, 17]: -10% | Fibrin % cell toxicity [4, 18]: 1% | inhibition at 10 µM [5, 19]: 1%

Cc1cc(CC(=O)O)n(C)c1C(=O)c1ccc(Cl)cc1 [Zomepirac]
LPS % cell toxicity [1, 6]: 0% | Quadrant (FIG. 5b) [2, 7]: Q4 | inhibition at 10 µM [3, 8]: -4% | Fibrin % cell toxicity [4, 9]: 1% | inhibition at 10 µM [5, 10]: 10%

CCCNC(C)(C)COC(=O)c1ccccc1 [Meprylcaine Hydrochloride]
LPS % cell toxicity [1, 11]: 0% | Quadrant (FIG. 5b) [2, 12]: Q4 | inhibition at 10 µM [3, 13]: -10% | Fibrin % cell toxicity [4, 14]: 0% | inhibition at 10 µM [5, 20]: 7%

CC(COc1ccccc1)NC(C)C(O)c1ccc(O)cc1 (centres unmarked) [Isoxsuprine Hydrochloride]
LPS % cell toxicity [1, 21]: 0% | Quadrant (FIG. 5b) [2, 12]: Q4 | inhibition at 10 µM [3, 22]: -13% | Fibrin % cell toxicity [4, 23]: 0% | inhibition at 10 µM [5, 24]: 23%

N=C(N)N/N=C/c1c(Cl)cccc1Cl [Guanabenz]
LPS % cell toxicity [1, 21]: 0% | Quadrant (FIG. 5b) [2, 12]: Q4 | inhibition at 10 µM [3, 22]: -46% | Fibrin % cell toxicity [4, 23]: 1% | LPS % inhibition ([5]; primary microglia HTS, LPS stimulation, activation = cell size >800 μm2): −18%

O=C(O)C1CSCN1 (centres unmarked) [Timonacic]
LPS % cell toxicity [1, 6]: 0% | Quadrant (FIG. 5b) [2, 7]: Q4 | inhibition at 10 µM [3, 8]: -38% | Fibrin % cell toxicity [4, 9]: 0% | inhibition at 10 µM [5, 10]: 19%

CC(C)(Oc1ccc(Cl)cc1)C(=O)O [Clofibric Acid]
LPS % cell toxicity [1, 16]: 0% | Quadrant (FIG. 5b) ([2]; primary HTS, 10 μM): Q4 | inhibition at 10 µM [3, 17]: -27% | Fibrin % cell toxicity [4, 18]: 1% | inhibition at 10 µM [5, 19]: 15%

Mepartricin
LPS % cell toxicity [1, 11]: 0% | Quadrant (FIG. 5b) [2, 12]: Q4 | Fibrin % inhibition [3, 13]: 6% | Fibrin % cell toxicity [4, 14]: 1% | LPS % inhibition [5, 15]: −1%

CC(C)C[C@H]1C(=O)N2CCC[C@H]2[C@]2(O)O[C@](NC(=O)[C@@H]3C=C4c5cccc6[nH]c(Br)c(c56)C[C@H]4N(C)C3)(C(C)C)C(=O)N12 [Bromocriptine Mesylate]
LPS % cell toxicity [1, 16]: 0% | Quadrant (FIG. 5b) ([2]; primary HTS, 10 μM): Q4 | inhibition at 10 µM [3, 17]: 26% | Fibrin % cell toxicity [4, 18]: 1% | inhibition at 10 µM [5, 19]: 24%

CC(=O)O[C@H]1C[C@@H]2CC[C@@H]3[C@H](CC[C@@]4(C)[C@H]3C[C@H]([N+]3(C)CCCCC3)[C@@H]4OC(C)=O)[C@@]2(C)C[C@@H]1N1CCCCC1 [Vecuronium]
LPS % cell toxicity [1, 6]: 1% | Quadrant (FIG. 5b) [2, 7]: Q4 | Fibrin % inhibition [3, 8]: −24% | Fibrin % cell toxicity [4, 9]: 1% | LPS % inhibition [5, 10]: 0%

C=C1CC[C@H](O)C/C1=C/C=C1\CCC[C@]2(C)[C@@H]([C@H](C)CCCC(C)(C)O)CC[C@@H]12 [Calcidiol]
LPS % cell toxicity [1, 16]: 0% | Quadrant (FIG. 5b) ([2]; primary HTS, 10 μM): Q4 | inhibition at 10 µM [3, 17]: 14% | Fibrin % cell toxicity [4, 18]: 1% | inhibition at 10 µM [5, 19]: 8%

CC(=O)[C@H]1CC[C@H]2[C@@H]3CC[C@H]4C[C@](C)(O)CC[C@]4(C)[C@H]3CC[C@]12C [Ganaxolone]
LPS % cell toxicity [1, 21]: 0% | Quadrant (FIG. 5b) [2, 12]: Q4 | inhibition at 10 µM [3, 22]: -38% | Fibrin % cell toxicity [4, 23]: 1% | inhibition at 10 µM [5, 24]: 12%

CN1CCCN=C1COC(=O)C(O)(c1ccccc1)C1CCCCC1 (centres unmarked) [Oxyphencyclimine]
LPS % cell toxicity [1, 11]: 0% | Quadrant (FIG. 5b) [2, 12]: Q4 | inhibition at 10 µM [3, 13]: 15% | Fibrin % cell toxicity [4, 14]: 1% | inhibition at 10 µM [5, 20]: 11%

O=C(O)c1nn(Cc2ccc(Cl)cc2Cl)c2ccccc12 [Lonidamine]
LPS % cell toxicity [1, 21]: 0% | Quadrant (FIG. 5b) [2, 12]: Q4 | inhibition at 10 µM [3, 22]: 7% | Fibrin % cell toxicity [4, 23]: 1% | inhibition at 10 µM [5, 24]: 19%
